The source made the active and inactive calls. Where only a bound is given, the exact number is not on record here.

Test [1] can be described thus: M. tuberculosis growth inhibition, HTS (AID 449762). It is filed as functional.
Test [2] is described as follows: PAX8-dependent cell viability loss – plate reader, dry powder, dose response (AID 743049). It is filed as functional, cell-based.
Test [3] can be described thus: OV-90 cell viability loss – plate reader, dry powder, SA8, PAX8 inhibitor project, dose response (AID 743149). The class given is functional, cell-based.
Test [4] in a line: toxicity toward immortalized ovarian surface epithelium – cell-based, plate reader, dry powder samples, cytotoxicity control for PAX8 inhibitor project, dose response (AID 743045). It is filed as functional.
A short description of test [5]: DRD fibroblast viability loss – cell-based, non-viral oncogenic, luminescence, dose response (AID 1934). The class given is functional. The note with it: Homo sapiens.
Test [6] in a line: PAX5 cellular inhibition readout – cell-based, plate reader, dry powder samples, selectivity assay for PAX8 inhibitor project, dose response (AID 743047).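 Also: HEK293 cells carrying a Pax5 driven CD19 promoter luciferase reporter; potency of inhibitors that lower reporter luminescence.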 The class given is functional.
Test [7] is described as follows: HEK-293T viability loss after treatment – luminescence, T-cell screen hits, cytotoxicity control for TCR NF-kB inhibitor project, dose response (AID 489026).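 Also: cells exposed to compound about 14 hours before the viability readout.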 The class given is functional, cell-based.
Test [8] can be described thus: IGROV1 cell killing – plate reader, dry powder samples, PAX8 inhibitor project, dose response (AID 743043). The note with it: IGROV-1. The class given is functional, cell-based.
Test [9] in a line: COV434 cell viability loss – plate reader, dry powder, SA7, cytotoxicity control for PAX8 inhibitor project, dose response (AID 743145). The class given is functional, cell-based.
Test [10] concerns BJ. Description: BJ-TERT-LT-ST fibroblast viability loss – cell-based, RAS-independent, luminescence, dose response (AID 1935).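 Also: BJ fibroblasts immortalized with TERT plus LT and ST oncogenes.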 The class given is functional. The note with it: Homo sapiens.
A further test concerns the target Paired box protein Pax-8 (Homo sapiens, UniProt Q06710). Description: PAX8 transcriptional activity inhibition in RMG-I – RMG-I cells, luciferase, cherry-pick, dose response (AID 687027).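 Also: luciferase reporter driven by Pax8 target thyroperoxidase promoter measured by SteadyGlo luminescence.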 It is filed as functional, cell-based.
Test [11] in a line: inhibitors acting on PAX2 in cells – cell-based, plate reader, dry powder samples, selectivity assay for PAX8 inhibitor project, dose response (AID 743048).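 Also: HEK293 cells carrying a WT1 promoter luciferase reporter driven by expressed Pax2; potency is for inhibition of Pax2 driven reporter signal.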 It is filed as functional.
Test [12] deals with BJ. Description: BJ-TERT fibroblast viability loss – cell-based, RAS-independent, luminescence, dose response (AID 1933). It is filed as functional. The note with it: Homo sapiens.
Test [13] is described as follows: OVCAR4 cell viability loss – plate reader, dry powder, SA11, cytotoxicity control for PAX8 inhibitor project, dose response (AID 743150). It is filed as functional, cell-based. The note with it: OVCAR-4.
Test [14] can be described thus: OVCAR-3 cell viability loss – plate reader, dry powder samples, PAX8 inhibitor project, dose response (AID 743044). The class given is functional, cell-based.
The test system of test [15] is BJ. Description: cells. It is filed as functional, cell-based. The note with it: Homo sapiens.
A short description of test [16]: A2780 cell killing – plate reader, dry powder samples, cytotoxicity control, dose response (AID 743046). It is filed as functional, cell-based.
Test [17] deals with Diphosphomevalonate decarboxylase (Streptococcus pneumoniae serotype 2 (strain D39 / NCTC 7466), UniProt Q9FD53). Description: diphosphomevalonate decarboxylase inhibitor confirmation – biochemical, cuvette format, coupled NADH fluorescence (AID 1028). It is filed as functional.
For test [18], the target named is Ubiquitin carboxyl-terminal hydrolase BAP1 (Homo sapiens, UniProt Q92560). Description: inhibition of BAP1 ubiquitin hydrolase activity – biochemical, dose response (AID 714). The class given is functional.
The target in test [19] is T1, Long-chain-fatty-acid--AMP ligase FadD28 (Mycobacterium tuberculosis, UniProt P9WQ59).
T1 sequence (P9WQ59 whole entry): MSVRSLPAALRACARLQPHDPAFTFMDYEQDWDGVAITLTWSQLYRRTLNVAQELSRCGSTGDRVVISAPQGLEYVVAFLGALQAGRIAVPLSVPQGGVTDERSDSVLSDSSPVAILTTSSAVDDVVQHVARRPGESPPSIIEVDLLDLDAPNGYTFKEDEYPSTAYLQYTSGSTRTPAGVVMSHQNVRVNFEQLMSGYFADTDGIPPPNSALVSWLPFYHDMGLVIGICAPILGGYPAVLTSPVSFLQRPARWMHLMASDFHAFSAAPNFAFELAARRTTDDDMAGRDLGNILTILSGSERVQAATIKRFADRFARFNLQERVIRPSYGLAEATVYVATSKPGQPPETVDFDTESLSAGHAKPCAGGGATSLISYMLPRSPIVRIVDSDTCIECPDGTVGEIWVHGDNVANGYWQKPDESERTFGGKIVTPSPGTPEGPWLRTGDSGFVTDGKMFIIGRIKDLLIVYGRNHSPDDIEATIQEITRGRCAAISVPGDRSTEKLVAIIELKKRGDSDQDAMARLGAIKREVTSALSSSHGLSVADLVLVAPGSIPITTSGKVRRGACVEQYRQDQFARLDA
Description: Fluorescence polarization aasay to screen for inhibitors that compete for the binding of FadD28 to a bisubstrate Measured in Biochemical System Using Plate Reader - 2147-01_Inhibitor_Dose_CherryPick_Activity. It is filed as functional, Mycobacterium tuberculosis H37Rv. On the technique in general: Fluorescence polarisation rises when a labelled molecule tumbles more slowly, as on binding a larger partner.

In test [20] the target is T2, Fibrinogen beta chain (Homo sapiens, UniProt P02675). Description: Fluorescence polarization-based biochemical high throughput dose response assay to identify inhibitors that disrupt the binding of a cyclic peptide (Tn6) to the fibrin proteolytic product D-Dimer and fragment E complex [DD(E )].
Test [21] addresses T2, Fibrinogen beta chain. Description: Fluorescence polarization-based biochemical high throughput dose response assay to identify inhibitors that disrupt the binding of a cyclic peptide (Tn7) to the fibrin proteolytic product D-Dimer and fragment E complex [DD(E )].
Test [22] concerns the target Induced myeloid leukemia cell differentiation protein Mcl-1 (Homo sapiens, UniProt Q07820). It is filed as functional.
Test [23] concerns the target Glutathione-S-transferase (Schistosoma japonicum, UniProt Q26513). Description: GST-antibody interaction or FRET quenching – biochemical, TR-FRET, artefact control for Vif-APOBEC3G degradation inhibitor project, dose response (AID 1117362). It is filed as functional.
Another test concerns Vero. Description: Vero cell viability after compound exposure – synthesized analogs, set II, cytotoxicity control for West Nile virus antiviral project, SAR follow-up (AID 2402). The class given is functional. The note with it: Chlorocebus sabaeus.

T2 sequence (P02675 whole entry, the tested form may be a part): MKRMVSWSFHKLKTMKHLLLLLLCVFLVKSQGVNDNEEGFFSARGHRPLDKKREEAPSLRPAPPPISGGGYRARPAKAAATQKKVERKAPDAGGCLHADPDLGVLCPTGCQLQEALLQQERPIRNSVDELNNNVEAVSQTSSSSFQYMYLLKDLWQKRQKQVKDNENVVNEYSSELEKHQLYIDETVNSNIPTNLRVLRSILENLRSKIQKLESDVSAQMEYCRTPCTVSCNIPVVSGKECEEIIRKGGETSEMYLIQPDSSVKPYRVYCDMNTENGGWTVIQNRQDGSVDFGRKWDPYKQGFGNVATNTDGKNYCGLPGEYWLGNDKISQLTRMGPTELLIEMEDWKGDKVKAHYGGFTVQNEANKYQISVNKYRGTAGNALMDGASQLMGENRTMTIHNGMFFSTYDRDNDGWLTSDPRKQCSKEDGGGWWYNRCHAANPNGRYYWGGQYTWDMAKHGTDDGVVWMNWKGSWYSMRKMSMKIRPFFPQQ
Chain of Induced myeloid leukemia cell differentiation protein Mcl-1 (Q07820 whole entry): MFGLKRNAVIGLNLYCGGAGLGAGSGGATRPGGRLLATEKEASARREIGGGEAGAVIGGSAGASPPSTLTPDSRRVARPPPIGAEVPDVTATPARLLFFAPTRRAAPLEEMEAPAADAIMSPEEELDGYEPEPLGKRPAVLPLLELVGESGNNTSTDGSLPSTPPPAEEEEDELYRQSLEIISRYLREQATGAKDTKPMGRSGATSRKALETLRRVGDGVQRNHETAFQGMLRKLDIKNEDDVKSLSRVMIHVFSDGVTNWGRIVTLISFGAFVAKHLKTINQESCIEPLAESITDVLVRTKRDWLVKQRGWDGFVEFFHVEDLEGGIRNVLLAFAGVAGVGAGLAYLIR
Chain of Glutathione-S-transferase (Q26513 whole entry): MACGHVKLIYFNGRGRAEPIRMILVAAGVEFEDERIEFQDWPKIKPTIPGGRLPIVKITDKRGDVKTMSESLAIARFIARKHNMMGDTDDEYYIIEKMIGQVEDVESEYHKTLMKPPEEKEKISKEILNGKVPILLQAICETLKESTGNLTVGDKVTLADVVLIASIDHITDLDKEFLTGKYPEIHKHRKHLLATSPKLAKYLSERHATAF
Chain of Ubiquitin carboxyl-terminal hydrolase BAP1 (Q92560 whole entry): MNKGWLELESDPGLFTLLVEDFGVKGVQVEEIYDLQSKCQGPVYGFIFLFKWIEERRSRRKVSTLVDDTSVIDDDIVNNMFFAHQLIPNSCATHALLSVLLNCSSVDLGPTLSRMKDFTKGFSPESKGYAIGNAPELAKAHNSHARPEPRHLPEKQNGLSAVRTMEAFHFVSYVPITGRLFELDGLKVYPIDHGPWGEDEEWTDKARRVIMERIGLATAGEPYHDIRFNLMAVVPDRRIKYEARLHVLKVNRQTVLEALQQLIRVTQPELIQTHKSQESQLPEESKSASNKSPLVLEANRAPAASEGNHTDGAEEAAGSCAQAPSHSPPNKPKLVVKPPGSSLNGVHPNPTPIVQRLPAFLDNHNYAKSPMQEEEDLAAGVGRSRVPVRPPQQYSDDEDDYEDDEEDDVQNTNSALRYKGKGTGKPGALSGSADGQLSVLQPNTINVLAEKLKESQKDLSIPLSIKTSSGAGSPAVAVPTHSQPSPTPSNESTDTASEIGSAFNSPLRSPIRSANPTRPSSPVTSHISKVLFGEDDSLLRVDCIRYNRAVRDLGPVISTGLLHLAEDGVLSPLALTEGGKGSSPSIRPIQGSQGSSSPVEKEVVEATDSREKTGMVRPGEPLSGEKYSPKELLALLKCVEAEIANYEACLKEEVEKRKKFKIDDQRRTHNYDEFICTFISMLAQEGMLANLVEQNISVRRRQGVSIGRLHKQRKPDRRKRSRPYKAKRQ
Chain of Paired box protein Pax-8 (Q06710 whole entry): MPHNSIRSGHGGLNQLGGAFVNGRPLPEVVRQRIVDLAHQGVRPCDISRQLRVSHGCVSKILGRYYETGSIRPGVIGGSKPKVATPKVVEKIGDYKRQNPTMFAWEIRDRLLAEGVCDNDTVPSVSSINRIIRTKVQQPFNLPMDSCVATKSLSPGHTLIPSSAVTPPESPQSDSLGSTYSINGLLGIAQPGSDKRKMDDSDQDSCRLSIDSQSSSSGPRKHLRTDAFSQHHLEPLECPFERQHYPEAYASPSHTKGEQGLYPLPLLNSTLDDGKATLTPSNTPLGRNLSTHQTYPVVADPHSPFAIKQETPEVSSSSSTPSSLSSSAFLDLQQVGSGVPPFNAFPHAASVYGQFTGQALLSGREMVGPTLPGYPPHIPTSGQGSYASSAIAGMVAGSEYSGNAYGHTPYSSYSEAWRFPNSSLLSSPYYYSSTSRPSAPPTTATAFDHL
Chain of Diphosphomevalonate decarboxylase (Q9FD53 whole entry): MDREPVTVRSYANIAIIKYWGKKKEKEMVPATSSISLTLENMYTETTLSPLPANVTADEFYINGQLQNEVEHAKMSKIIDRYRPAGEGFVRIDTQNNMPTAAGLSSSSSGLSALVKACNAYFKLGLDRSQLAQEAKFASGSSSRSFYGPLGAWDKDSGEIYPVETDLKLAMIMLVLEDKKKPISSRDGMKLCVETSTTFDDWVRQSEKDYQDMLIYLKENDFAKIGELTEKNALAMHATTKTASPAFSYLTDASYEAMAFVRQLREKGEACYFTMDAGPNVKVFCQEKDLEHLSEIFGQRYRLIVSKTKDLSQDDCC

One may read the IC50 as the point on the concentration scale where inhibition reaches its midpoint. As for `CC(C)(C)c1nc2sc3c(c2c(=O)o1)CCCC3`, the half-inhibitory concentration (IC50) in test [1] was > 100000 nM (active).

The AC50 is the concentration at which the activity in the assay is half-maximal. Usually EC50 stands for the concentration that produces a half-maximal response. With `CCOCCCNC(=O)c1ccc2c(c1)N=C(CC)c1cc(Br)ccc1S2`, the AC50 in [2] is 386 nM (active); in test [3], 497 nM (active); in test [4], 403 nM (active); in [6] it was 41800 nM (active); in test [8], 4780 nM (active); in test [9] it was 1070 nM (active). Besides, the AC50 at Paired box protein Pax-8 was 1220 nM (active); in [11] it was 15300 nM (active); in [13] it was 1160 nM (active); in test [14], 300 nM (active); in test [16], 1350 nM (active). In addition, the EC50 in [5] was 358 nM (active); in the test with BJ [10] it was 455 nM (active); with BJ [12] it was 342 nM (active); with BJ [15], 828 nM (inconclusive). Also, the IC50 in [7] is > 80000 nM (inactive).

On to `O=C(NCc1ccco1)c1ccccc1-n1sc2ccccc2c1=O`, for which the IC50 in test [17] is 38700 nM (active).

In the case of `CC1CCCN(S(=O)(=O)c2ccc(NC(=O)Cn3nnc(-c4ccccc4F)n3)cc2)C1` (stereo not given), the IC50 in test [18] was 41600 nM (not active). The AC50 in test [19] was > 100000 nM (inactive).

As to `Nc1c(SCCC(=O)O)ccc2c1C(=O)c1ccccc1C2=O`, the IC50 on Fibrinogen beta chain [20] was 11700 nM (inactive); at Fibrinogen beta chain [21], > 83300 nM (inactive).

Consider `COc1ccc(O)c(N)c1`, for which the values for the IC50 in test [22] and in [23] were 1530 nM (active) and > 100000 nM (active), respectively.

In general, CC50 refers to the concentration that lowers cell viability or growth by half. For the compound `OC1c2cc(Br)ccc2N=C2CCCCN21` (stereo not given), the CC50 in the test on Vero was > 200000 nM (active).

For the origin of these results see ChEMBL document CHEMBL1201862, “PubChem BioAssay data set” (2004).
